Data published in patent US20030235851A1, “Methods of using sense and/or nonsense suppression to make nucleic acid-peptide display libraries containing peptides with unnatural amino acid residues” (priority 2002, published 2003).
Peptide text beside a SMILES is read from it. * marks the point of attachment. X1 = CC1(C)S[C@@H]2[C@H](NC(=O)C*)C(=O)N2[C@H]1C(=O)O; Carboxymethyl = O=C(O)C*

Key:
PBP2a [1] = biological target: T1, PBP2a (Staphylococcus aureus, UniProt P07944); assay: Relative IC50 competition assay of peptide penicillanate conjugates against PBP2a (biotinylated ampicillin); format: binding; set-up: This part was cleaved off with DTT before the test
Experimental: Relative IC50 Assay of Peptide Penicillanate Conjugates
Various concentration of conjugates were prepared by dissolving in reaction buffer (50 mM phosphate, pH=8.0; 100 mM NaCl) and incubating with 2 Vg pure PBP2a respectively at 37° C. for 15 min. 20 μg biotinylated ampicillin was added immediately and incubated at 37° C. for 10 min. The reaction was stopped by heating the reaction mixture at 94° C. for 5 min. The samples were loaded into 12% SDS-PAGE for separation, then were transferred to a nitrocellulose membrane by blotting with sodium bicarbonate buffer (20% methanol; 3 mM Na2CO3; 10 mM NaHCO3) at 400 mA for 3 hr. The membrane was blocked with blocking solution (20 mM Tris, pH=8.0; 150 mM NaCl; 0.05% TWEEN-20 detergent; 5% milk) for 1 hr, then incubated with 10 ml TBS buffer (20 mM Tris, pH=8.0; 150 mM NaCl) containing 1 μg/ml streptavidin-HRP protein (Pierce Chemical) at room temperature for 1 hr. The membrane was washed 6 times with 50 ml TBS buffer, at 5 min intervals, and covered with FEMTO-WESTERN blotting reagent (Pierce Chemical). The membrane was then examined under a digital camera at dark to collect chemiluminescent emission for 10-15 min.

[2] = biological target: Crk N terminal SH3 domain (Homo sapiens, UniProt P46108); settings: substitution for proline at P2 and P−1; cited from earlier work
[3] = biological target: Grb2 N terminal SH3 domain (Homo sapiens, UniProt P62993); settings: substitution for proline at P2 and P−1; cited from earlier work
PBP2a [4] = biological target: T1, PBP2a; settings: cited from earlier work
[5] = biological target: translation complex A site; settings: ribosome; cited from earlier work
[6] = biological target: penicillin-binding protein 2a (PBP2a) (Staphylococcus aureus (MRSA)) (UniProt P07944); assay: relative IC50: competition with biotinylated ampicillin for labelling of pure PBP2a, streptavidin-HRP blot
[7] = biological target: penicillin-binding protein 2a (PBP2a) (Staphylococcus aureus (MRSA)) (UniProt P07944); assay: relative IC50: conjugate pre-incubated with pure PBP2a 15 min at 37 C, then competition with biotinylated ampicillin, SDS-PAGE and streptavidin-HRP blot
[8] = biological target: penicillin-binding protein 2a (PBP2a) (Staphylococcus aureus (MRSA)) (UniProt P07944); assay: ratio of relative IC50 values against the 6-aminopenicillanic acid reference, biotinylated ampicillin competition on PBP2a

penicillin-binding protein 2a (PBP2a) (Staphylococcus aureus (MRSA)), sequence (P07944 23-670): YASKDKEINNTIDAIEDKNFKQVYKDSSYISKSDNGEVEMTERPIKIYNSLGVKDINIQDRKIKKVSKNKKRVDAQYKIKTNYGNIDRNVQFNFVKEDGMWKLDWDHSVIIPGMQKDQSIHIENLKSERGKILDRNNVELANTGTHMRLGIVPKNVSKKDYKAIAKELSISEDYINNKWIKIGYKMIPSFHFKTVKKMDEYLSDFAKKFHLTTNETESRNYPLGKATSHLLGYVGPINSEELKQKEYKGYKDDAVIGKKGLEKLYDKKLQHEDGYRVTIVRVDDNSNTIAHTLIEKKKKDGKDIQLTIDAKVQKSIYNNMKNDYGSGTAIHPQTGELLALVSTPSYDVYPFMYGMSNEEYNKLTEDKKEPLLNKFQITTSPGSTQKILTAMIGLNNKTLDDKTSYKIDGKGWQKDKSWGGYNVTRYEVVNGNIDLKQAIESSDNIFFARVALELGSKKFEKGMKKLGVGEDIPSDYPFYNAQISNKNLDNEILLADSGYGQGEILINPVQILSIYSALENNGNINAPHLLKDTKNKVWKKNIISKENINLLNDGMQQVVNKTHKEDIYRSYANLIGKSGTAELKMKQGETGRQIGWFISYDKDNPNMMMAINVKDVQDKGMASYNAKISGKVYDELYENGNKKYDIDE
T1 sequence (P07944 whole entry, the tested form may be a part): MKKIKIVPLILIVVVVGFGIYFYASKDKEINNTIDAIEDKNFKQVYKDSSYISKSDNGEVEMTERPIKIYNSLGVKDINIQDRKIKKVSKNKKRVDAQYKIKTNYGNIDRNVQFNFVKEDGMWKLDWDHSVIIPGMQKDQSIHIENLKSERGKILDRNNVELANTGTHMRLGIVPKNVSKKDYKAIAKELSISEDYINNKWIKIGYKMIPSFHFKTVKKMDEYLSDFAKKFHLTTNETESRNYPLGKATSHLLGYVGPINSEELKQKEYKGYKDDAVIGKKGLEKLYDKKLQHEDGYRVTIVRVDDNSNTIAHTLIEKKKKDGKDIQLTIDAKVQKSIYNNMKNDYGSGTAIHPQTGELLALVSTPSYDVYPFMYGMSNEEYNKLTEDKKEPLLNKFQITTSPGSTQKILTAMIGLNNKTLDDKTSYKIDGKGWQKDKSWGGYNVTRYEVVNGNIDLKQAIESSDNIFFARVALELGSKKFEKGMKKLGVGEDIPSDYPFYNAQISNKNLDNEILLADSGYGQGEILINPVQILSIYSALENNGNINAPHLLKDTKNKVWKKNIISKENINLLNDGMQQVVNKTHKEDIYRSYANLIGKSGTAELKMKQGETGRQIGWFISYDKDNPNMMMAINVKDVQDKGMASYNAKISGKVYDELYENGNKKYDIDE
Crk N terminal SH3 domain, sequence (P46108 132-192 limits assumed): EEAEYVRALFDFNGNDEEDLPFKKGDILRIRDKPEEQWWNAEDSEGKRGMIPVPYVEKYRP
Grb2 N terminal SH3 domain, sequence (P62993 1-58 limits assumed): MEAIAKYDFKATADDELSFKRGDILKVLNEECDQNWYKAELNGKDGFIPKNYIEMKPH

Q: With `CC[C@H](C)[C@H](NC(=O)[C@H](CSCC(=O)N[C@@H]1C(=O)N2[C@@H]1SC(C)(C)[C@@H]2C(=O)O)NC(=O)[C@H](CC(N)=O)NC(=O)[C@H](CO)NC(=O)[C@H](CC(N)=O)NC(=O)[C@H](CCCNC(=N)N)NC(=O)[C@@H](N)CC(C)C)C(=O)N[C@@H](CCCNC(=N)N)C(=O)N[C@@H](Cc1c[nH]cn1)C(=O)N[C@@H](Cc1ccccc1)C(=O)N[C@@H](Cc1ccccc1)C(=O)O` [LRNSNC(pen)IRHFF] (H-LRNSNC(X1)IRHFF-OH; N-terminus and C-terminus assumed) as the molecule, how does the “improvement as compared to 6-APA” value (PBP2a [1]; PBP2a inhibition) read?
A: Its value is “about 100 fold”.

Q: What does the source list for `CNCC(=O)O` [N-methyl glycine]?
A: change in the binding [2]: little change; change in the binding [3]: little change

Q: With `CC1(C)S[C@@H]2[C@H](NC(=O)Cc3ccccc3)C(=O)N2[C@H]1C(=O)O` [benzyl penicillin] as the molecule, how does the “rate constant for covalent attachment to PBP2a (k2)” value (PBP2a [4]) read?
A: The value was 0.22 s⁻¹.

Q: With `COc1cccc(OC)c1C(=O)N[C@@H]1C(=O)N2[C@@H]1SC(C)(C)[C@@H]2C(=O)O` [methicillin] as the molecule, how does the “rate constant for covalent attachment to PBP2a (k2)” value (PBP2a [4]) read?
A: The value was 0.0083 s⁻¹.

Q: Which Kd [5] does the source give for `COc1ccc(C[C@H](N)C(=O)N[C@H]2[C@@H](O)[C@H](n3cnc4c(N(C)C)ncnc43)O[C@@H]2CO)cc1` [puromycin] here?
A: Its Kd is 0.1 mM.

Q: With `CC[C@H](C)[C@H](NC(=O)[C@H](CSCC(=O)O)NC(=O)[C@H](CC(N)=O)NC(=O)[C@H](CO)NC(=O)[C@H](CC(N)=O)NC(=O)[C@H](CCCNC(=N)N)NC(=O)[C@@H](N)CC(C)C)C(=O)N[C@@H](CCCNC(=N)N)C(=O)N[C@@H](Cc1c[nH]cn1)C(=O)N[C@@H](Cc1ccccc1)C(=O)N[C@@H](Cc1ccccc1)C(=O)O` [unmodified peptide] (H-LRNSNC(Carboxymethyl)IRHFF-OH) as the molecule, how does the IC50 (PBP2a [1]) read?
A: Its IC50 is greater than 35 mM.

Q: With “LRNSNC(COOH)IRHFF (residues 2-12 of SEQ ID NO: 5) (peptide)” as the molecule, how does the IC50 [6] read?
A: The IC50 was greater than 35 mM.

Q: With “LRNSNC(pen)IRHFF (residues 2-12 of SEQ ID NO: 5) (peptide)” as the molecule, how does the IC50 [7] read?
A: Its IC50 is 7 mM.

Q: What about the fold improvement compared to 6-APA [8] of the same molecule?
A: The fold improvement compared to 6-APA was 100 fold.
